From US11026958B2, “Substituted 6-membered aryl or heteroaryl allosteric modulators of nicotinic acetylcholine receptors” (Merck Sharp & Dohme Corp., priority 2016, dated 2021)
Read-outs that look alike come from different tables or passages of the source.

Target: human α7 nAChR (Homo sapiens (Human), UniProt P36544)
Test: Automated patch-clamp electrophysiology functional assay (Assay A), IonFlux HT
Type: cell-based
Details: HEK cell line stably expressing human RIC-3 and human α7, whole-cell population patch, 40 μM acetylcholine
Procedure: The α7 nAChR positive allosteric modulator (PAM) activity of the present compounds may be tested using assays known in the art. The α7 nAChR PAMs described herein have activities in an automated patch-clamp electrophysiology functional assay as described in the examples. The assay was performed using the IonFlux HT in a whole-cell, population patch configuration. See Golden et al. Assay Drug Dev. Technol. (2011) 9:608-619. The compounds were assessed for their ability to modulate the function of the human α7 nAChR stably expressed in a HEK cell line both in the presence, and in the absence of the natural α7 agonist acetylcholine. By performing a series of such measurements at different concentrations, the effective concentration of the α7 nAChR PAMs (EC50) was determined. See Spencer et al. Assay Drug Dev. Technol. (2012) 10:313-324.
Automated patch-clamp electrophysiology was performed using the IonFlux HT (Fluxion Biosciences Inc., San Francisco, Calif.) in the whole-cell, population patch configuration. Test compounds were assessed for their ability to modulate the function of the α7 nicotinic acetylcholine receptor both in the presence, and in the absence of the natural α7 agonist acetylcholine. A HEK cell line stably expressing both human RIC-3 and human α7 (PrecisION hnAChR α7/RIC-3, Eurofins Pharma, St. Charles, Mo.) was cultured in 175 cm^2 triple-layer tissue culture flasks to no more than 90% confluency in DMEM/F-12 growth media supplemented with 10% heat-inactivated fetal bovine serum, 1% non-essential amino acids, 0.625 μg/mL Puromycin, and 400 μg/mL Geneticin. Immediately prior to assay, cells were detached by first aspirating growth media, rinsing with Dulbecco's phosphate buffered saline, and then adding 10 mL of Accutase (Innovative Cell Technologies, San Diego, Calif.) to the flask and then incubating at 37° C. for 5 minutes. Detached cells were then recovered by the addition of 40 mL of CHO-serum-free media supplemented with 25 mM HEPES, and rocked gently in a 50 mL conical tube for 20 minutes prior to patch-clamp assay. After recovery, cells were pelleted by centrifugation at 1,000 RPM for 1 minute in a compact bench top centrifuge; recovery media was aspirated and cells were resuspended in external recording solution (150 mM NaCl, 5 mM KCl, 2 mM CaCl2, 1 mM MgCl2, 10 mM HEPES, 12 mM dextrose) to a density of 5.0×10^6 cells/mL. The cell suspension was added to the cell inlet wells on an IonFlux HT population patch plate which had previously been rinsed and primed with deionized H2O. Test compounds were serially diluted in DMSO and then resuspended to the final test concentration in external recording solution, with, or without 40 μM acetylcholine added to the external recording solution; test compounds were then transferred to the IonFlux HT population patch plate. Internal recording solution (110 mM TrisPO4, 28 mM TrisBase, 0.1 mM CaCl2, 2 mM MgCl2, 11 mM EGTA, 4 mM MgATP) was added to the internal recording solution inlet wells on the IonFlux HT patch plate previously loaded with cells and test compounds, and the plate loaded into the IonFlux HT instrument. A protocol was executed on the IonFlux HT to trap the cells, break into the cells, and establish the whole-cell recording configuration; cells were voltage-clamped at a holding potential of −60 mV for the duration of the experiment, all experiments were conducted at room temperature, and the IonFlux HT injection pressure was 8 psi for solution applications. Upon establishing the whole-cell configuration, external recording solution was perfused into the recording chambers for 120 seconds and then 40 μM acetylcholine was applied for 1 second and immediately washed off with external recording solution for 60 seconds. The 40 μM acetylcholine-evoked α7 current served as the current response to which subsequent test compound effects, in the presence, or in the absence of 40 μM acetylcholine would be quantified relative to. […]

Sequence of human α7 nAChR (P36544 23-502): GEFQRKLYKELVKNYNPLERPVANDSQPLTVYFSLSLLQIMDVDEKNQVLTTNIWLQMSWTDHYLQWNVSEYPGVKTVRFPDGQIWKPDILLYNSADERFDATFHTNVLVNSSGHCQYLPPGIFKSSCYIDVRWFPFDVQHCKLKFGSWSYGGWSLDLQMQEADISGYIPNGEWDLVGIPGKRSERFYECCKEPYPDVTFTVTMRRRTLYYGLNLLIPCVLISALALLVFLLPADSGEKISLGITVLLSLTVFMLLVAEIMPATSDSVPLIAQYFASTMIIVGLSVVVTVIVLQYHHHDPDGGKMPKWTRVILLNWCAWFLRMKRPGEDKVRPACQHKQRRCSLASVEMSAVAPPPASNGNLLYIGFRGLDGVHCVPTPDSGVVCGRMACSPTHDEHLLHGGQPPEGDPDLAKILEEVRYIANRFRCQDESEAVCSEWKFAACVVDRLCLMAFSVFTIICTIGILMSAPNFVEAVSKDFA

EC50 (read-out: α7 nAChR EC50) [nM] | EC50 (read-out: α7 nAChR Potency) [nM] | Compound
3300 | 500 to 5000 | NS(=O)(=O)c1ccc(C2CC2c2ccnc(Nc3ccccc3)n2)cc1 (racemic) [Example D11, 4-{trans-2-[2-(Phenylamino)pyrimidin-4-yl]cyclopropyl}benzenesulfonamide]
410 | 100 to 500 | CC(C)c1ccnc(C2CC2c2ccc(S(N)(=O)=O)cc2)c1 (single isomer, unassigned) [Example A2, 4-{trans-2-[4-(Propan-2-yl)pyridin-2-yl]cyclopropyl}benzenesulfonamide]
1000 | 500 to 5000 | NS(=O)(=O)c1ccc(C2CC2c2ccc(C3CCCC3)cn2)cc1 (single isomer, unassigned) [Example 4, 4-[trans-2-(5-Cyclopentylpyridin-2-yl)cyclopropyl]benzenesulfonamide]
– | 500 to 5000 | NS(=O)(=O)c1ccc([C@@H]2C[C@H]2c2cccc(C3CCCC3)n2)cc1 (single isomer, unassigned) [Example A4, 4-[trans-2-(6-Cyclopentylpyridin-2-yl)cyclopropyl]benzenesulfonamide]
1200 | 500 to 5000 | CC(C)c1cc(C2CC2c2ccc(S(N)(=O)=O)cc2)ccn1 (single isomer, unassigned) [Example 8, 4-{trans-2-[2-(Propan-2-yl)pyridin-4-yl]cyclopropyl}benzenesulfonamide]
1500 | 500 to 5000 | NS(=O)(=O)c1ccc([C@@H]2C[C@H]2c2ccc(C3CCCC3)cn2)cc1 (racemic) [Example A13, 4-[trans-2-(5-Cyclopentylpyridin-2-yl)cyclopropyl]benzenesulfonamide]
210 | 100 to 500 | NS(=O)(=O)c1ccc(C2CC2c2nccc(-c3cccc(F)c3)n2)cc1 (single isomer, unassigned) [Example 10, 4-{trans-2-[4-(3-Fluorophenyl)pyrimidin-2-yl]cyclopropyl}benzenesulfonamide]
3300 | 500 to 5000 | NS(=O)(=O)c1ccc([C@@H]2C[C@H]2c2cccc(-n3cccn3)n2)cc1 (racemic) [Example A8, 4-{trans-2-[6-(1H-Pyrazol-1-yl)pyridin-2-yl]cyclopropyl}benzenesulfonamide]
– | 500 to 5000 | CC(C)c1cccc(C2CC2c2ccc(S(N)(=O)=O)cc2)n1 (racemic) [Example A10, 4-{trans-2-[6-(Propan-2-yl)pyridin-2-yl]cyclopropyl}benzenesulfonamide]
1800 | 500 to 5000 | CC(C)c1ccnc(C2CC2c2ccc(S(N)(=O)=O)cc2)n1 (racemic) [Example C3, 4-{trans-2-[4-(Propan-2-yl)pyrimidin-2-yl]cyclopropyl}benzenesulfonamide]
– | 500 to 5000 | CC(C)c1ccc(C2CC2c2ccc(S(N)(=O)=O)cc2)cn1 (racemic) [Example G1, 4{-trans-2-[6-(Propan-2-yl)pyridin-3-yl]cyclopropyl}benzenesulfonamide]
870 | 500 to 5000 | NS(=O)(=O)c1ccc([C@@H]2C[C@H]2c2ccc(-n3cccn3)nc2)cc1 (racemic) [Example G3, 4-{trans-2-[6-(1H-Pyrazol-1-yl)pyridin-3-yl]cyclopropyl}benzenesulfonamide]
550 | 500 to 5000 | CC(C)c1ccc(C2CC2c2ccc(S(N)(=O)=O)cc2)nc1 (single isomer, unassigned) [Example A3, 4-{trans-2-[5-(Propan-2-yl)pyridin-2-yl]cyclopropyl}benzenesulfonamide]
– | 500 to 5000 | CC(C)c1cc(C2CC2c2ccc(S(N)(=O)=O)cc2)ccn1 (racemic) [Example E1, 4-{trans-2-[2-(Propan-2-yl)pyridin-4-yl]cyclopropyl}benzenesulfonamide]
1600 | 500 to 5000 | NS(=O)(=O)c1ccc([C@H]2[C@H](c3nccc(-c4cccc(F)c4)n3)C2(F)F)cc1 [Example C6, 4-{(1R,3R)-2,2-Difluoro-3-[4-(3-fluorophenyl)pyrimidin-2-yl]cyclopropyl}benzenesulfonamide]
240 | 100 to 500 | NS(=O)(=O)c1ccc(C2CC2c2nccc(-c3cncc(C(F)(F)F)c3)n2)cc1 (single isomer, unassigned) [Example 11, 4-(trans-2-{4-[5-(Trifluoromethyl)pyridin-3-yl]pyrimidin-2-yl}cyclopropyl)benzenesulfonamide]
320 | 100 to 500 | Cc1nc(-c2cccc([C@@H]3C[C@H]3c3ccc(S(N)(=O)=O)cc3)c2)no1 (relative stereo) [Example 7, 4-{trans-2-[3-(5-Methyl-1,2,4-oxadiazol-3-yl)phenyl]cyclopropyl}benzenesulfonamide]
1000 | 500 to 5000 | CC(C)Oc1ccc(C2CC2c2ccc(S(N)(=O)=O)cc2)cn1 (racemic) [Example G4, 4-{trans-2-[6-(Propan-2-yloxy)pyridin-3-yl]cyclopropyl}benzenesulfonamide]
1400 | 500 to 5000 | CC1(C)[C@H](c2ccc(S(N)(=O)=O)cc2)[C@H]1c1nccc(-c2cncc(C(F)(F)F)c2)n1 [Example 9, 4-[(1R,3R)-2,2-Dimethyl-3-{4-[5-(trifluoromethyl)pyridin-3-yl]pyrimidin-2-yl}cyclopropyl]benzenesulfonamide]
– | 500 to 5000 | NS(=O)(=O)c1ccc([C@@H]2C[C@H]2c2ccnc(N3CCOCC3)n2)cc1 (relative stereo) [Example 2, 4-{trans-2-[2-(Morpholin-4-yl)pyrimidin-4-yl]cyclopropyl}benzenesulfonamide]
3700 | 500 to 5000 | NS(=O)(=O)c1ccc([C@@H]2C[C@H]2c2ccc(-n3ccnc3)cc2)cc1 (racemic) [Example F1, 4-{trans-2-[4-(1H-Imidazol-1-yl)phenyl]cyclopropyl}benzenesulfonamide]
1500 | 500 to 5000 | NS(=O)(=O)c1ccc(C2CC2c2cccc(C3CCCC3)n2)cc1 (single isomer, unassigned) [Example 3, 4-[trans-2-(6-Cyclopentylpyridin-2-yl)cyclopropyl]benzenesulfonamide]
720 | 500 to 5000 | NS(=O)(=O)c1ccc([C@@H]2C[C@H]2c2ccc(N3CCCC3)nc2)cc1 (relative stereo) [Example 6, 4-{trans-2-[6-(Pyrrolidin-1-yl)pyridin-3-yl]cyclopropyl}benzenesulfonamide]

Compound | EC50 (read-out: α7 nAChR EC50) [nM] | EC50 (read-out: α7 nAChR Potency) [nM]
4-(trans-2-{2-[(4-Fluorophenyl)amino]pyrimidin-4-yl}cyclopropyl)benzenesulfonamide [Example D8] | 3800 | 500 to 5000
4-{trans-2-[2-(Pyrrolidin-1-yl)pyrimidin-4-yl]cyclopropyl}benzenesulfonamide [Example D7] | 900 | 500 to 5000
NS(=O)(=O)c1ccc(C2CC2c2cncc(N3CCCC3)c2)cc1 (racemic) [Example G2, 4-{trans-2-[5-(Pyrrolidin-1-yl)pyridin-3-yl]cyclopropyl}benzenesulfonamide] | 3200 | 500 to 5000
4-(trans-2-{2-[(2,2-Dimethylpropyl)amino]pyrimidin-4-yl}cyclopropyl)benzenesulfonamide [Example D5] | 1800 | 500 to 5000
4-{trans-2-[2-(Cyclopentylamino)pyrimidin-4-yl]cyclopropyl}benzenesulfonamide [Example D2] | 2200 | 500 to 5000
